Source: the NIST ThermoML archive (doi:10.1021/je7006549)

How the values were obtained:
[1] = 101 kPa, Liquid
[2] = mn = molality of the nth substance listed, in mol/kg; details: 101 kPa, Liquid

Cc1ccccc1C [1,2-dimethylbenzene]
[1]
Details	mass density [kg/m3]	viscosity [mPa·s]
303.15 K	872.1	0.7404
308.15 K	867.7	0.69
313.15 K	864	0.6451
318.15 K	859.7	0.6117
323.15 K	855.5	0.5711
328.15 K	851.2	0.5433
333.15 K	847.1	0.5105

Cc1cccc(C)c1 [1,3-dimethylbenzene]
[1]
Details	mass density [kg/m3]	viscosity [mPa·s]
303.15 K	855.6	0.549
308.15 K	851.1	0.5201
313.15 K	846.9	0.4967
318.15 K	842.4	0.4817
323.15 K	838.3	0.444
328.15 K	833.7	0.435
333.15 K	829.6	0.413

Cc1ccc(C)cc1 [1,4-dimethylbenzene]
[1]
Details	mass density [kg/m3]	viscosity [mPa·s]
303.15 K	852	0.5726
308.15 K	847.7	0.5374
313.15 K	843.2	0.5178
318.15 K	838.7	0.4882
323.15 K	834.5	0.4595
328.15 K	829.9	0.4439
333.15 K	825.6	0.4189

CC1=CC(=O)c2ccccc2C1=O [2-methyl-1,4-naphthalenedione] + Cc1ccccc1C
[2]
Details	mass density [kg/m3]	viscosity [mPa·s]
303.15 K, m1 = 0.0436	873.9	0.7432
303.15 K, m1 = 0.0884	875.8	0.7496
303.15 K, m1 = 0.1326	877.7	0.7581
303.15 K, m1 = 0.1767	879.6	0.7658
303.15 K, m1 = 0.2215	881.6	0.7765
303.15 K, m1 = 0.2656	883.5	0.7833
308.15 K, m1 = 0.0436	869.5	0.6988
308.15 K, m1 = 0.0884	871.4	0.7021
308.15 K, m1 = 0.1326	873.3	0.7081
308.15 K, m1 = 0.1767	875.2	0.7159
308.15 K, m1 = 0.2215	877.2	0.726
308.15 K, m1 = 0.2656	879.1	0.7348
313.15 K, m1 = 0.0436	865.8	0.6532
313.15 K, m1 = 0.0884	867.7	0.6592
313.15 K, m1 = 0.1326	869.6	0.6687
313.15 K, m1 = 0.1767	871.5	0.6742
313.15 K, m1 = 0.2215	873.5	0.681
313.15 K, m1 = 0.2656	875.4	0.6888
318.15 K, m1 = 0.0436	861.5	0.6212
318.15 K, m1 = 0.0884	863.4	0.6256
318.15 K, m1 = 0.1326	865.3	0.6319
318.15 K, m1 = 0.1767	867.2	0.6407
318.15 K, m1 = 0.2215	869.2	0.6473
318.15 K, m1 = 0.2656	871.1	0.6525
323.15 K, m1 = 0.0436	857.3	0.5792
323.15 K, m1 = 0.0884	859.2	0.5832
323.15 K, m1 = 0.1326	861.1	0.5905
323.15 K, m1 = 0.1767	863	0.5967
323.15 K, m1 = 0.2215	865	0.6011
323.15 K, m1 = 0.2656	866.9	0.6087
328.15 K, m1 = 0.0436	853	0.5498
328.15 K, m1 = 0.0884	854.9	0.5531
328.15 K, m1 = 0.1326	856.8	0.5601
328.15 K, m1 = 0.1767	858.7	0.5665
328.15 K, m1 = 0.2215	860.7	0.5706
328.15 K, m1 = 0.2656	862.6	0.5773
333.15 K, m1 = 0.0436	848.9	0.5177
333.15 K, m1 = 0.0884	850.8	0.5202
333.15 K, m1 = 0.1326	852.7	0.5277
333.15 K, m1 = 0.1767	854.6	0.5309
333.15 K, m1 = 0.2215	856.6	0.5358
333.15 K, m1 = 0.2656	858.5	0.5412
